Data taken from patent publication US8153593B2, “Transglutaminase inhibitors and methods of use thereof” (The Board of Trustees of the Leland Stanford Junior …, priority 2003, dated 2012).

Key:
[1] = biological target: T1, small intestine mucosal TG2 (Mus musculus, UniProt P21981); test: Small intestine mucosal TG2 activity after intra-peritoneal dosing; format: in vivo, mice
T1 construct: from tissue; host or cells: mouse small intestinal mucosa
T1 sequence (P21981 1-686): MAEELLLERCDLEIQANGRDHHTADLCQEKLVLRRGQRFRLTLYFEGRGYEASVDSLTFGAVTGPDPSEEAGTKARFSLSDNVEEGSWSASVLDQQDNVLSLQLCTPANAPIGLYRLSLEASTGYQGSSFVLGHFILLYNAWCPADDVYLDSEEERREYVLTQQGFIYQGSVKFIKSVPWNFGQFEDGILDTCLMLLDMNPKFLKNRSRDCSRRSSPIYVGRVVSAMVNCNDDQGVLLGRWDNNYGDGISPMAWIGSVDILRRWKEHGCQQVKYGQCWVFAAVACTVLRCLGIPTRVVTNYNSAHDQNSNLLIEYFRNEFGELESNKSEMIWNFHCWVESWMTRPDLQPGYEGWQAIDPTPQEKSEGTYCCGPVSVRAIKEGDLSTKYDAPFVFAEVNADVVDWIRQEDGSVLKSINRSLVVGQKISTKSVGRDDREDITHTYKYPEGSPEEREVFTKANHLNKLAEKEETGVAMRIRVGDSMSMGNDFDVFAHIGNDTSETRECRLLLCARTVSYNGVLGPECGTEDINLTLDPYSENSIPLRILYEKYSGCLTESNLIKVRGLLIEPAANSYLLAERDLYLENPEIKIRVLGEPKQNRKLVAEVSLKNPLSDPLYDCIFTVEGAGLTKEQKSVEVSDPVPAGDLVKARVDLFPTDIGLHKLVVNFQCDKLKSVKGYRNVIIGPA
Protocol: FIG. 7: Time dependent inhibition of small intestine mucosal TG2 in mice dosed intra-peritoneally with 60 mg/kg KCC009. Mice were sacrificed at different times, intestinal mucosa were harvested and assayed for TG2 activity.
Due to the absence of an appropriate animal model for Celiac Sprue, the therapeutic benefit of TG2 inhibitors for this disease can only be validated in patients. Our goal is therefore to identify a safe, oral TG2 inhibitor that can block mucosal TG2 activity in the upper small intestine of Celiac Sprue patients. Such an agent could be used in the context of a short (2 week) blinded crossover trial in Celiac Sprue patients to determine if TG2 inhibition protects a Celiac Sprue patient from gluten-induced malabsorption. From available data, KCC009 may be precisely such a compound. […] To test whether orally administered KCC009 can inhibit jejunal TG2 activity, adult male rats were dosed with 35 mg/kg KCC009 in a kneaded gluten vehicle. Animals were sacrificed 1 h after administration of either vehicle-gluten (n=3) or drug-gluten (n=4), and jejunal mucosa was harvested. In vehicle treated animals, jejunal TG2 activity was 21±7 pmol/min/mg protein, whereas in KCC009 treated rats TG2 activity of 5.5±3 pmol/min/mg protein was observed. Thus, a suitable oral formulation may therefore enable local delivery of KCC009 to intestinal mucosa.

[2] = system: DBT cells; test: Clonogenic radiosensitizer assay; format: cell-based, murine
Protocol: FIG. 2: KCC009 as a radiosensitizer. Cultured DBT cells were treated with radiation alone (3.2 Gy) (left) or radiation plus 0.5 mM KCC009 (right), and plated on soft agar to evaluate cell viability.
In addition to evaluating the chemosensitizing potential of KCC009, this compound's potential as a radiosensitizer was also evaluated. For this clonogenic assays were used to measure colony formation after a single radiation treatment. The studies were performed in triplicate with varying doses of XRT and number of cells plated. […] A representative photo of a clonogenic assay plate treated with X-ray alone compared with a plate pre-treated with 0.5 mM KCC009 plus X-ray is shown in FIG. 2.

[3] = system: HCT-116; test: Combination with epothilone C in colon cancer cells; format: cell-based, human; settings: KCC009 in the 1-100 μM range
[4] = system: IOMM-Lee meningioma cells; test: Meningioma cell sensitization to radiation, TG2-fibronectin Western blot; format: cell-based; settings: 0.5 mM KCC009
Protocol: FIG. 4: Top left: control IOMM meningioma cells; Top right: IOMM cells exposed to 20 Gy radiation; Bottom left: IOMM cells exposed to 0.5 mM KCC009 and 20 Gy radiation.
FIG. 5: Western blot analysis of lysates from IOMM cells treated with KCC009 and/or BCNU. Lysates were immunoprecipitated with anti-fibronectin antibodies, and the Western blots were probed with anti-TG2 antibodies. Lanes (left to right): Control, KCC009 only, BCNU only, KCC009+BCNU. KCC009 and BCNU were used at concentrations of 0.5 mM and 6.25 μM, respectively. Disappearance of TG2 from lanes treated with KCC009 illustrates loss of association of TG2 with the extracellular matrix.
To verify the therapeutic utility of KCC009 against meningiomas, IOMM-Lee meningioma cells were treated with 20 Gy of radiation with and without KCC009. […] Similar data was also obtained when KCC009 was used in combination with BCNU.

[5] = system: subcutaneous murine DBT glioblastoma tumors; test: Subcutaneous DBT glioblastoma tumor study with BCNU; settings: in vivo, combination with BCNU
[6] = Preliminary pharmacokinetic and toxicity studies; settings: mice

O=C(N[C@@H](Cc1ccc(O)cc1)C(=O)NCC1CC(Br)=NO1)OCc1ccccc1 (stereo partly drawn) [Compound 59]
time to complete recovery of TG2 activity ([1]; 60 mg/kg intra-peritoneal): ≤ 8 h | inhibition of TG2 activity ([1]; 60 mg/kg intra-peritoneal, short timescale (˜1 h)): strong inhibition of TG2 activity | TG2 inhibition in small intestinal tissue ([1]; mice, preliminary pharmacodynamic study): efficient TG2 inhibition | enhancement of cell death in response to radiation ([2]; 0.5 mM KCC009, 3.2 Gy X-ray): two orders of magnitude | effect of KCC009 alone on cell viability ([2]; at corresponding concentrations, no radiation): does not affect cell viability | reduction of GI50 for epothilone C [3]: > 2 fold | sensitization to radiation ([4]; 20 Gy radiation): dramatically sensitized meningioma cells to radiation | association between TG2 and fibronectin ([4]; fibronectin immunoprecipitate, anti-TG2 Western blot): loss of association between TG2 and fibronectin | synergism with BCNU [5]: excellent synergism | oral bioavailability [6]: reasonable oral bioavailability | serum half-life [6]: short | toxicity [6]: low toxicity
